How the values were obtained:
[1] = tested on: 17-PTP-induced bladder contraction; assay: Suppressing effect on 17-phenyl trinor prostaglandin E2 (17-PTP)-induced bladder contraction; assay type: in vivo, Wistar-type male rat; settings: urethane-anesthetized spinal cord-cut rat; test compound 1 mg/kg i.v. 5 minutes before 17-PTP i.a.; most decreased value until 95 minutes, relative to average before test compound administration
Description: (1) Preparation of Experimental Animal
A 10 w/v % urethane solution was subcutaneously administered (s. c.) at a dose of 1.5 g/kg to a Wistar-type male rat to thereby induce anesthesia. Approximately 40 minutes after the urethane administration, the rat was confirmed to be fully anesthetized, hair in the back, the thighs on both sides, the abdomen, and the neck was shaved, and fixation in a face-down position was performed. After midline incision of the dorsal skin, thoracodorsal muscles on both sides were incised along the spine, and the muscular layer was opened with a retractor to expose the thoracic spine. While the ninth thoracic vertebra was pulled cranially, a small hole was made with bone forceps, and from it, the spinal cord was cut using a soldering iron. At this time, in the case where bleeding was heavy, a gelatin sponge for hemostasis was put into the cut portion. The thoracodorsal incision layer was closed using a surgical adhesive, and then, the rat was fixed in a face-up position. […]
The rat was placed in a face-up position on a heating pad for small animals, and a rectal temperature probe was inserted from the anus to keep the body temperature at 37.5° C. The body temperature was confirmed to become 37.5° C., then 0.1 mL of a physiological saline solution was injected into the bladder, and intravesical pressure was measured. […]

rat EP1 receptor = biological target: T1, rat EP1 receptor (Rattus norvegicus, UniProt P70597); assay: Test for confirming EP1 receptor antagonistic effect: suppression of prostaglandin E2-induced rise in intracellular calcium concentration; assay type: cell-based; settings: rat EP1 receptor-expressing COS-1 cells; prostaglandin E2 10 nM; Fluo 4-AM fluorescent signal; test compound 0.1 nM to 10 μM
T1 construct: expressed in transfected cells
T1 sequence (P70597 1-405): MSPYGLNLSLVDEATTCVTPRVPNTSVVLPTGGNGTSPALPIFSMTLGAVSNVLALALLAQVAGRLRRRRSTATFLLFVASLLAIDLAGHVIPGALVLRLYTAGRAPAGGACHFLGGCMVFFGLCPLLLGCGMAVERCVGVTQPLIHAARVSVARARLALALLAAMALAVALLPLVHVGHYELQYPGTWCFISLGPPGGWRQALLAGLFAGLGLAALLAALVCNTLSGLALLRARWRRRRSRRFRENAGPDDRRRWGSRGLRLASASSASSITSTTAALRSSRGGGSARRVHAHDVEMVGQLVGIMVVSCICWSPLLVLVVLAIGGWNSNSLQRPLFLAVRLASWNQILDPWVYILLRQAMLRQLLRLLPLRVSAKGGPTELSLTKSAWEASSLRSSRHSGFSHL
Description: (1) Preparation of Rat EP1 Expression Vector
The first PCR was performed with Rat Kidney BD Marathon-Ready cDNA (Nippon Becton Dickinson Co., Ltd.) as a template using a forward primer represented by SEQ ID NO: 1 and a reverse primer represented by SEQ ID NO: 2 and using KOD-Plus-Ver 2.0 (Toyobo Co., Ltd.). The second PCR was further performed in a similar manner with this amplification product as a template using a forward primer represented by SEQ ID NO: 3 and a reverse primer represented by SEQ ID NO: 4. The amplification product obtained by the second PCR was incorporated into a vector (pcDNA3.1 D/V5-His-TOPO (registered trademark), Invitrogen Corporation). This vector with the incorporated amplification product was introduced to E. coli (One Shot TOP10 Competent Cell, Invitrogen Corporation) by a conventional method to perform transformation. This transformed E. coli was cultured for 1 day in an LB agar medium. After the culture, colonies were selected and cultured in an LB liquid medium containing 50 μg/mL of ampicillin. After the culture, the vector was purified using QIAprep Spin Miniprep Kit (Qiagen Corporation). The base sequence (SEQ ID NO: 5) of the inserted site in this vector was compared with the base sequence (Ptger1) of rat EP1 registered under Accession No. NM_013100 in a heretofore known database (NCBI) and consequently was completely identical except for 1 base. Moreover, an amino acid sequence translated from this base sequence was completely identical to the amino acid sequence of the rat EP1 receptor registered under Accession No. NP_037232 in NCBI. Thus, it was confirmed that the cloned gene sequence was the base sequence of the rat EP1 receptor and the obtained amino acid sequence was the rat EP1 receptor. The pcDNA3.1 D/V5-His-TOPO (registered trademark) in which the nucleic acid represented by SEQ ID NO: 5 was inserted was used as a rat EP1 expression vector.
(2) Preparation of Rat EP1 Receptor-Expressing Cell
COS-1 cells (Dainippon Sumitomo Pharma Co., Ltd.) were cultured at 37° C. in an incubator under 5% CO2 gas conditions using a D-MEM liquid medium (containing high glucose and L-glutamine, Invitrogen Corporation) supplemented with a penicillin-streptomycin solution (Invitrogen Corporation, final concentration: 100 U/mL as benzylpenicillin; 100 μg/mL as streptomycin) as antibiotics, MEM non-essential amino acids (Invitrogen Corporation, final concentration: 0.1 mM), and fetal bovine serum (Moregate Biotech, final concentration: 10%), until reaching confluence.
The cells that reached confluence were dissociated with 0.05% trypsin/0.53 mM EDTA.4Na (Invitrogen Corporation) and resuspended in the liquid medium. The resuspended cells were diluted with the liquid medium so that the spread ratio became 1:4 to 1:8, and were cultured.
The cells that reached confluence were dissociated with 0.05% trypsin/0.53 mM EDTA.4Na and resuspended in a D-MEM liquid medium (containing high glucose and L-glutamine, Invitrogen Corporation) supplemented with MEM non-essential amino acids (final concentration: 0.1 mM) and fetal bovine serum (final concentration: 10%). This resuspended cell suspension was prepared with a liquid medium so as to become the number of cells 5×10^4 cells/100 μL of the liquid medium/well in each well of a poly-D-lysine-coated 96-well microplate (BD BioCoat (registered trademark), Nippon Becton Dickinson Co., Ltd.), and this cell preparation was dispensed at 100 μL to each well and seeded. After the seeding, the cells were cultured at 37° C. in an incubator under 5% CO2 gas conditions. The introduction of the rat EP1 expression vector was performed by procedures shown below at the point in time when the cells for introduction of this rat EP1 expression vector adhered (approximately 2 hours after the seeding).
Lipofectamine 2000 (Invitrogen Corporation) was used for the introduction of the rat EP1 expression vector. […]

IC50 (rat EP1 receptor): 8 nM
Structure (SMILES): O=C(O)c1cccc(Cc2c(-c3ccccc3)nn3cc(Cl)ccc23)n1 [Example 3-3, 6-[(6-Chloro-2-phenylpyrazolo[1,5-a]pyridin-3-yl)methyl]pyridine-2-carboxylic acid]
Amount of change in intravesical pressure [1]: 53%
